Literature values, collected in PMC10817174, “Integrated drug response prediction models pinpoint repurposed drugs with effectiveness against rhabdomyosarcoma” (PLOS ONE, 2024).

Columns and labels:
GDSC-RD cell line = settings: Table S2, published drug response ref Iorio et al. (2016); cited from earlier work
GDSC-SJCRH30 cell line = settings: Table S2, published drug response ref Iorio et al. (2016); cited from earlier work

Row | Structure (SMILES) | Iorio_RD (GDSC-RD cell line) | Iorio_SJCRH30 (GDSC-SJCRH30 cell line)
1 | O=c1[nH]cc(F)c(=O)[nH]1 [5-Fluorouracil] | R | R
2 | C=CCNC1=C2C[C@@H](C)C[C@H](OC)[C@H](O)[C@@H](C)/C=C(\C)[C@H](OC(N)=O)[C@@H](OC)/C=C\C=C(/C)C(=O)NC(=CC1=O)C2=O [17-AAG] |  | R
3 | Cc1ccc(F)c(NC(=O)Nc2ccc(-c3cccc4[nH]nc(N)c34)cc2)c1 [ABT-869] | R | R
4 | C[C@]1(c2nc3c(C(N)=O)cccc3[nH]2)CCCN1 [ABT-888] |  | R
5 | CC(C)(C)c1cc(NC(=O)Nc2ccc(-c3cn4c(n3)sc3cc(OCCN5CCOCC5)ccc34)cc2)no1 [AC220] | R | R
6 | CNCc1ccc(-c2[nH]c3cc(F)cc4c3c2CCNC4=O)cc1 [AG-014699] | R | R
7 | NC(=O)c1ncn([C@@H]2O[C@H](CO)[C@@H](O)[C@H]2O)c1N [AICAR] |  | R
8 | O=c1[nH]c2ccccc2n1C1CCN(Cc2ccc(-c3nc4cc5[nH]cnc5cc4nc3-c3ccccc3)cc2)CC1 [AKT-inhibitor-VIII] | R | R
9 | CC1(C)CNc2cc(NC(=O)c3cccnc3NCc3ccncc3)ccc21 [AMG-706] |  | R
10 | Cc1ccc(C(=O)Nc2ccc(CN3CCN(C)CC3)c(C(F)(F)F)c2)cc1C#Cc1cnc2cccnn12 [AP-24534] | R | R
11 | CC(C)[C@H](C(=O)Nc1ccc(C(=O)NO)cc1)c1ccccc1 [AR-42] | R | R
12 | N#CC(c1ccnc(NCCc2cccnc2)n1)c1nc2ccccc2s1 (stereo not drawn) [AS601245] | R | R
13 | O=C1NC(=O)/C(=C\c2ccc3nccnc3c2)S1 [AS605240] | R | R
14 | O=C(NC1CCNCC1)c1[nH]ncc1NC(=O)c1c(Cl)cccc1Cl [AT-7519] | R | R
15 | CC1=C(/C=C/C(C)=C/C=C/C(C)=C/C(=O)O)C(C)(C)CCC1 [ATRA] |  | R
16 | CCNC(=O)c1noc(-c2cc(C(C)C)c(O)cc2O)c1-c1ccc(CN2CCOCC2)cc1 [AUY922] | R | R
17 | COc1cc2nccc(Oc3ccc(NC(=O)Nc4cc(C)on4)c(Cl)c3)c2cc1OC [AV-951, tivozanib] | R | R
18 | NC(=O)Nc1cc(-c2cccc(F)c2)sc1C(=O)N[C@H]1CCCNC1 [AZD7762] |  | S
19 | COc1ccc(-c2ccc3c(N4CCOC[C@@H]4C)nc(N4CCOC[C@@H]4C)nc3n2)cc1CO [AZD8055] |  | R
20 | CNC(=O)c1ccccc1Sc1ccc2c(/C=C/c3ccccn3)n[nH]c2c1 [Axitinib] |  | R
21 | COc1ccc(-c2cc3nccn3c(Nc3ncccc3C(N)=O)n2)cc1OC [BAY-61-3606] | R | R

Row | Structure (SMILES) | Iorio_RD (GDSC-RD cell line) | Iorio_SJCRH30 (GDSC-SJCRH30 cell line)
22 | Cc1ccc(-n2nc(C(C)(C)C)cc2NC(=O)Nc2ccc(OCCN3CCOCC3)c3ccccc23)cc1 [BIRB-0796] |  | R
23 | CN(C)Cc1cccc(N/C(=C2\C(=O)Nc3cc(C(=O)N(C)C)ccc32)c2ccccc2)c1 [BIX02189] | R | R
24 | Cn1ncnc1[C@H]1c2n[nH]c(=O)c3cc(F)cc(c23)N[C@@H]1c1ccc(F)cc1 [BMN-673] | R | S
25 | Cc1ccc2nc(NCCN)c3ncc(C)n3c2c1 [BMS-345541] | R | R
26 | C[C@@]1(C(=O)Nc2ccc(F)nc2)CCCN1c1nc(Nc2cc(C3CC3)n[nH]2)c2cccn2n1 [BMS-754807] | S | S
27 | O=C(NCCCNc1nc(Nc2cccc(NC(=O)N3CCCC3)c2)ncc1I)c1cccs1 [BX-795] |  | R
28 | O=C(Nc1cccc(Nc2ncc(Br)c(NCCc3cnc[nH]3)n2)c1)N1CCCC1 [BX-912] | R | R
29 | C=C(c1ccc(C(=O)O)cc1)c1cc2c(cc1C)C(C)(C)CCC2(C)C [Bexarotene] | R | R
30 | COc1cc(Nc2c(C#N)cnc3cc(OCCCN4CCN(C)CC4)c(OC)cc23)c(Cl)cc1Cl [Bosutinib] |  | R
31 | C[C@]12O[C@H](C[C@]1(O)CO)n1c3ccccc3c3c4c(c5c6ccccc6n2c5c31)CNC4=O [CEP-701] |  | R
32 | O=C(NOCC1CC1)c1ccc(F)c(F)c1Nc1ccc(I)cc1Cl [CI-1040] |  | R
33 | CC[C@@]1(O)C(=O)OCc2c1cc1n(c2=O)Cc2cc3ccccc3nc2-1 [Camptothecin] |  | R
34 | N.N.[Cl][Pt][Cl] [Cisplatin] |  | R
35 | Nc1ccn([C@@H]2O[C@H](CO)[C@@H](O)[C@@H]2O)c(=O)n1 [Cytarabine] |  | S
36 | CC(=O)O[C@@]12CO[C@@H]1C[C@H](O)[C@@]1(C)C(=O)[C@H](O)C3=C(C)[C@@H](OC(=O)[C@H](O)[C@@H](NC(=O)OC(C)(C)C)c4ccccc4)C[C@@](O)([C@@H](OC(=O)c4ccccc4)[C@H]21)C3(C)C [Docetaxel] |  | R
37 | CN(NC(=O)CC(=O)NN(C)C(=S)c1ccccc1)C(=S)c1ccccc1 [Elesclomol] |  | R
38 | Cn1cc(/C=C2\C(=O)Nc3cccnc32)c2ccccc21 [GW-441756] |  | S
39 | COc1cc2ncnc(Nc3ccc(F)c(Cl)c3)c2cc1OCCCN1CCOCC1 [Gefitinib] |  | R
40 | CNC(=O)c1ccc(Nc2cc(Nc3ccccc3S(=O)(=O)C(C)C)c3cc[nH]c3n2)nc1 [HG-5-113-01] |  | R
41 | CCOc1nc(NC(=O)Cc2cc(OC)ccc2OC)cc(N)c1C#N [JNK-Inhibitor-VIII] |  | R
42 | O=c1cc(-c2cccc3c2Sc2ccccc2S3)oc(N2CCOCC2)c1 [KU-55933] |  | R

Row | Structure (SMILES) | Iorio_RD (GDSC-RD cell line) | Iorio_SJCRH30 (GDSC-SJCRH30 cell line)
43 | Nc1cccc2c1CN(C1CCC(=O)NC1=O)C2=O (stereo not drawn) [Lenalidomide] |  | R
44 | NC1(c2ccc(-c3nc4ccn5c(=O)[nH]nc5c4cc3-c3ccccc3)cc2)CCC1 [MK-2206] |  | R
45 | CN(Cc1cnc2nc(N)nc(N)c2n1)c1ccc(C(=O)N[C@@H](CCC(=O)O)C(=O)O)cc1 [Methotrexate] |  | R
46 | O=c1cc(N2CCOCC2)oc2c(-c3cccc4c3sc3ccccc34)cccc12 [NU-7441] |  | R
47 | Cn1c(=O)n(-c2ccc(C(C)(C)C#N)cc2)c2c3cc(-c4cnc5ccccc5c4)ccc3ncc21 [NVP-BEZ235] |  | R
48 | Cc1cn(-c2cc(NC(=O)c3ccc(C)c(Nc4nccc(-c5cccnc5)n4)c3)cc(C(F)(F)F)c2)cn1 [Nilotinib] |  | R
49 | COc1ccc(C2=N[C@@H](c3ccc(Cl)cc3)[C@@H](c3ccc(Cl)cc3)N2C(=O)N2CCNC(=O)C2)c(OC(C)C)c1 [Nutlin-3a] |  | R
50 | CCN(CC)CCCCNc1ncc2cc(-c3cc(OC)cc(OC)c3)c(NC(=O)NC(C)(C)C)nc2n1 [PD-173074] |  | R
51 | O=C(NOC[C@H](O)CO)c1ccc(F)c(F)c1Nc1ccc(I)cc1F [PD-0325901] |  | R
52 | CC(=O)c1c(C)c2cnc(Nc3ccc(N4CCNCC4)cn3)nc2n(C2CCCC2)c1=O [PD-0332991] |  | R
53 | O=C1NC(=NCc2cccs2)S/C1=C\c1ccc2ncccc2c1 [RO-3306] |  | R
54 | Cn1cc(C2=C(c3ccc(Cl)cc3Cl)C(=O)NC2=O)c2ccccc21 [SB-216763] |  | R
55 | CC(=O)O[C@@H]1[C@@H](OC(C)=O)[C@@H](O)[C@H](Oc2c(-c3ccc(O)cc3)oc3cc(O)cc(O)c3c2=O)O[C@H]1C [SL-0101-1] |  | R
56 | CO[C@H]1C[C@@H]2CC[C@@H](C)[C@@](O)(O2)C(=O)C(=O)N2CCCC[C@H]2C(=O)O[C@H]([C@H](C)C[C@@H]2CC[C@@H](OC(=O)C(C)(CO)CO)[C@H](OC)C2)CC(=O)[C@H](C)/C=C(\C)[C@@H](O)[C@@H](OC)C(=O)[C@H](C)C[C@H](C)/C=C/C=C/C=C/1C [Temsirolimus] |  | R
57 | NC(=O)c1ccc(N(C(N)=O)c2c(F)cccc2F)nc1-c1ccc(F)cc1F [VX-702] |  | R
58 | CC[C@]1(O)C[C@@H]2CN(CCc3c([nH]c4ccccc34)[C@@](C(=O)OC)(c3cc4c(cc3OC)N(C)[C@H]3[C@@](O)(C(=O)OC)[C@H](OC(C)=O)[C@]5(CC)C=CCN6CC[C@]43[C@@H]65)C2)C1 [Vinblastine] |  | R
59 | CS(=O)(=O)c1ccc(C(=O)Nc2ccc(Cl)c(-c3ccccn3)c2)c(Cl)c1 [Vismodegib] |  | R
60 | CCOc1cc(N2CCC(O)CC2)ccc1Nc1ncc2c(n1)N(C)c1ccccc1C(=O)N2C [XMD8-92] |  | R
61 | CN(C)C/C=C/C(=O)Nc1ccc(C(=O)Nc2cccc(Nc3nccc(-c4cccnc4)n3)c2)cc1 [ZG-10] |  | R
62 | COc1cc2c(Nc3ccc(NC(=O)c4ccccc4)cc3)ncnc2cc1OCCCN1CCOCC1 [ZM-447439] |  | R
